One block for each compound: values may come before it. Activity calls are given as the source filed them.
What was measured:
Hexokinase HKDC1 = target: T1, Hexokinase HKDC1 (Homo sapiens, UniProt Q2TB90); assay: HKDC1 hexokinase inhibitors, SAR follow-up, biochemical, set 2 (AID 588355); format: functional
T1 sequence (Q2TB90 whole entry): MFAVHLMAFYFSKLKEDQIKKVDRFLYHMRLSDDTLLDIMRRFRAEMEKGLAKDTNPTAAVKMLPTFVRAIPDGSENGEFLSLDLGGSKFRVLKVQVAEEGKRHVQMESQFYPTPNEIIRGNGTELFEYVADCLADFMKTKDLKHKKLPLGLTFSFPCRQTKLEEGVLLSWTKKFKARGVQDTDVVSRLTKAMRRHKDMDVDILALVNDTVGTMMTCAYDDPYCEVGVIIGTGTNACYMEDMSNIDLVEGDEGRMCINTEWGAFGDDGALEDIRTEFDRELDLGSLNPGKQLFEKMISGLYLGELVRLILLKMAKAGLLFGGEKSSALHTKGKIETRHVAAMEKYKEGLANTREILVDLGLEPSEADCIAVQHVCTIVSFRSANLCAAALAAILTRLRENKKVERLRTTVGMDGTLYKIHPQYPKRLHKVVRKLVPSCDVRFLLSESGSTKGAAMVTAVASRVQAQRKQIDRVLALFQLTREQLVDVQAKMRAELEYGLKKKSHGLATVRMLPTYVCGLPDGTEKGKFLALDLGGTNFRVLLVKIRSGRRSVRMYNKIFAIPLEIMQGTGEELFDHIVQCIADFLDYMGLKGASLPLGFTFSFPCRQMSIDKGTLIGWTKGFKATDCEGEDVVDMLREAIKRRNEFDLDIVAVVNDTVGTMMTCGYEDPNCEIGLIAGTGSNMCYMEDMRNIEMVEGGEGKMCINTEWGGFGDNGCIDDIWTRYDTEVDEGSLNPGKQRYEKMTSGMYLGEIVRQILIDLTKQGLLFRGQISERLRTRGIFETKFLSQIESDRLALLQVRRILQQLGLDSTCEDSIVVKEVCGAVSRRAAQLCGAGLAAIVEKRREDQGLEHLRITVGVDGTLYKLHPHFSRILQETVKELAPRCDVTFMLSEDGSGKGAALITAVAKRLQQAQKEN

SUMO-activating enzyme = SUMO-activating enzyme (Homo sapiens, UniProt Q9UBT2); assay: SUMOylation inhibitor hit validation, confirmation, SUMOylation inhibitor project, biochemical, AlphaScreen (AID 2018); format: functional
SUMO-activating enzyme, sequence (Q9UBE0 whole entry): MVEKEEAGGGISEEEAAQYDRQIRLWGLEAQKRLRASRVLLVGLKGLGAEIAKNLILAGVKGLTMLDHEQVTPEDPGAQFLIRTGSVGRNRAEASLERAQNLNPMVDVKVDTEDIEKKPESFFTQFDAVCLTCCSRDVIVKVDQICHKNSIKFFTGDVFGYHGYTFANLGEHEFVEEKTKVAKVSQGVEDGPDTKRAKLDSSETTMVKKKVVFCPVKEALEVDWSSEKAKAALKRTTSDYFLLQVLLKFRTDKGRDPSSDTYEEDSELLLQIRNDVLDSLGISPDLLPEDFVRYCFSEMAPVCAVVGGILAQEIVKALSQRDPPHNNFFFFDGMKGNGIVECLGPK
SUMO-activating enzyme, sequence (Q9UBT2 whole entry): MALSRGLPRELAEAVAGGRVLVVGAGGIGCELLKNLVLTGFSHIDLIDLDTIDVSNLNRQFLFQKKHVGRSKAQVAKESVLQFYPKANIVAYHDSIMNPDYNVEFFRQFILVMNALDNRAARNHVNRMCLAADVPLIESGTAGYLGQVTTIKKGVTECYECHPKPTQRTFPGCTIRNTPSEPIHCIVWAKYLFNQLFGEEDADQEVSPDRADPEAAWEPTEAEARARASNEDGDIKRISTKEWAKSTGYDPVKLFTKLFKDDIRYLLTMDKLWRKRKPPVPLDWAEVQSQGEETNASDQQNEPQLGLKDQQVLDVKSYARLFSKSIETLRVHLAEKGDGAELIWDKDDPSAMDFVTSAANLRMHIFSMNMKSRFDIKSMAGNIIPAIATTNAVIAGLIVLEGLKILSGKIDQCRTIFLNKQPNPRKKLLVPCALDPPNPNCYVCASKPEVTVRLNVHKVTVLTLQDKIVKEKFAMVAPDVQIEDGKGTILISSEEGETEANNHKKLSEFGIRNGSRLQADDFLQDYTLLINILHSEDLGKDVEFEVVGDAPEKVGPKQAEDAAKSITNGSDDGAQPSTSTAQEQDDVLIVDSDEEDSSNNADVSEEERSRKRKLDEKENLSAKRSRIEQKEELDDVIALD

[1] = tested on: Streptococcus sp. 'group A'; assay: growth inhibition of control SK(-) GAS strain, dose response, counter-screen for streptokinase expression inhibitor project, luminescence, kanamycin, BacTiterGlo, confirmation (AID 1900); format: functional, organism-based; conditions: read-out: EC50
[2] = target: Heat shock cognate 71 kDa protein (Homo sapiens, UniProt P11142); assay: In Vitro Hsc70 Dose Response Fluorescence Polarization Assay. [Related pubchem assays: 1072 ]
[3] = target: T2, Rac GTPase-activating protein 1 (Homo sapiens, UniProt Q9H0H5); assay: MgcRacGAP GTPase-activating activity inhibitors, confirmation, biochemical, ADP Hunter fluorescence, primary and confirmatory (AID 624330); format: functional
T2 sequence (Q9H0H5 whole entry): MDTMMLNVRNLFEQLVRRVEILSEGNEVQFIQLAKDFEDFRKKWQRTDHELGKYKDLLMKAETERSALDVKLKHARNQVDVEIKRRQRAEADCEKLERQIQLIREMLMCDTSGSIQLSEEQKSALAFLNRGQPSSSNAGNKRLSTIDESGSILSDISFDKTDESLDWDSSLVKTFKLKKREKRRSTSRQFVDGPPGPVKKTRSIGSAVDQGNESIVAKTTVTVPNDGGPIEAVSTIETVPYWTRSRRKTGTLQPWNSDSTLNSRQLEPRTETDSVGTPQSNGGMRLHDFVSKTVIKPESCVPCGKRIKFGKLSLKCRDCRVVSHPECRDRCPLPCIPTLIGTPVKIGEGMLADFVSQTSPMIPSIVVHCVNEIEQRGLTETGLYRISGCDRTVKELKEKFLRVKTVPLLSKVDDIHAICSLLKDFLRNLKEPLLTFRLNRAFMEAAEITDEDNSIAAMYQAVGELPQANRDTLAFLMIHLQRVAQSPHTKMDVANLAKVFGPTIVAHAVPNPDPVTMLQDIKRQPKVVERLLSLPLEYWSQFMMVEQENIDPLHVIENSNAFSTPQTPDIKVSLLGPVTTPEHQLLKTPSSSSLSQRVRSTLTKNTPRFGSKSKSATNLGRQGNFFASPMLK

[4] = target: Matrix metalloproteinase-14 (Homo sapiens, UniProt P50281); assay: Dose Response confirmation of uHTS hits for a small molecule inhibitors of MT1-MMP activation in a fluorescence assay set 2.; format: functional
[5] = target: Megakaryocyte-associated tyrosine-protein kinase (Homo sapiens, UniProt P42679); format: functional;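 also: affinity measured as one member of a kinase panel (Navigating the Kinome) against MATK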
[6] = target: Serine/threonine-protein kinase D3 (Homo sapiens, UniProt O94806); format: functional;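 also: determined within a kinase panel screen, with PRKCN as the panel member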
[7] = target: Fibroblast growth factor receptor 3 (Homo sapiens, UniProt P22607); format: functional
[8] = target: MAP kinase-activated protein kinase 3 (Homo sapiens, UniProt Q16644); format: functional;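 also: value comes from a kinome-wide profiling panel in which MAPKAPK3 is one of the panel members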
MAP kinase-activated protein kinase 3, sequence (Q16644 whole entry): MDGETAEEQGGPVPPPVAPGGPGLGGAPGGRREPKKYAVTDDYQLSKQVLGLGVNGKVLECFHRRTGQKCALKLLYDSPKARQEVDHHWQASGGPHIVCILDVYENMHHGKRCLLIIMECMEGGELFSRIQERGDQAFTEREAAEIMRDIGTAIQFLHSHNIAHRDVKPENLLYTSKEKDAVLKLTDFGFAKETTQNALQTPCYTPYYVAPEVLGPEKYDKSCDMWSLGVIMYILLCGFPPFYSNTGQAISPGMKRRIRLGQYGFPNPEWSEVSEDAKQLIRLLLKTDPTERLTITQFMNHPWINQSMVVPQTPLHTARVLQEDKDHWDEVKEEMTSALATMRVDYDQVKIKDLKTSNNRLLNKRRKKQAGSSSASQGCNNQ

[9] = target: Mitogen-activated protein kinase 13 (Homo sapiens, UniProt O15264); format: functional
[10] = target: Ribosomal protein S6 kinase beta-1 (Homo sapiens, UniProt P23443); format: functional;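 also: measured as one member of a kinome-wide profiling panel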
Ribosomal protein S6 kinase beta-1, sequence (P23443 whole entry): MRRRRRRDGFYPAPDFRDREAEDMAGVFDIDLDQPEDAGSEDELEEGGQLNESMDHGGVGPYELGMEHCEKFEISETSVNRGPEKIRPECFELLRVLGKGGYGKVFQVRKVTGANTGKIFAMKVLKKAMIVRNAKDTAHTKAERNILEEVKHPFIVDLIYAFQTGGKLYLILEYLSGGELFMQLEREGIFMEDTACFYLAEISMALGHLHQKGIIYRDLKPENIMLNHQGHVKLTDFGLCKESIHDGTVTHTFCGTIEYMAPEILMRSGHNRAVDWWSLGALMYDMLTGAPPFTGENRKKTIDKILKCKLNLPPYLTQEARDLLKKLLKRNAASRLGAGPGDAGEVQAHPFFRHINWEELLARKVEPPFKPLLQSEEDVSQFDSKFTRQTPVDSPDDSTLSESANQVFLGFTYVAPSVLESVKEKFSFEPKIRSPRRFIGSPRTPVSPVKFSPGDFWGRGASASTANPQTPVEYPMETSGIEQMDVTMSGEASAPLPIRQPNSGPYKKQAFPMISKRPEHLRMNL

[11] = target: Dual specificity tyrosine-phosphorylation-regulated kinase 3 (Homo sapiens, UniProt O43781); format: functional;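 also: measured as one member of a broad kinase panel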
Dual specificity tyrosine-phosphorylation-regulated kinase 3, sequence (O43781 whole entry): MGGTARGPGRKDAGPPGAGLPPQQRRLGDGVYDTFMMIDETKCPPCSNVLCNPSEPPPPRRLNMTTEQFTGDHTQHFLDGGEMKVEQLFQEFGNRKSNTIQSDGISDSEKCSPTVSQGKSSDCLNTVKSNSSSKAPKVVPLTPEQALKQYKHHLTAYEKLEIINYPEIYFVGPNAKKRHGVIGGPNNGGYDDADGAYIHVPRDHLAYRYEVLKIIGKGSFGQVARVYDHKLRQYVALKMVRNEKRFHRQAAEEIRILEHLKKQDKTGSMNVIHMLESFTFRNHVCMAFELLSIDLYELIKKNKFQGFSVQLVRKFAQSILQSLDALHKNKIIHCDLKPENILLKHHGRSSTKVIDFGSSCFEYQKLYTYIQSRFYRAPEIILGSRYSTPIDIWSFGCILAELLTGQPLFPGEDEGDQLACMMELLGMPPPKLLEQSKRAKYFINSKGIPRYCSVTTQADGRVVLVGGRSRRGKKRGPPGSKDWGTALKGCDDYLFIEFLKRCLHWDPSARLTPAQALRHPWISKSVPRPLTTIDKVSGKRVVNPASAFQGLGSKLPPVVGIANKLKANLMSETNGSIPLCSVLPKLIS

[12] = target: Mitogen-activated protein kinase kinase kinase kinase 5 (Homo sapiens, UniProt Q9Y4K4); format: functional;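 also: measured as one member of a kinome-spanning kinase panel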
[13] = target: Tyrosine-protein kinase receptor TYRO3 (Homo sapiens, UniProt Q06418); format: functional;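 also: TYRO3 value obtained as one member of a kinome-wide profiling panel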
[14] = target: Mitogen-activated protein kinase 12 (Homo sapiens, UniProt P53778); format: functional;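 also: measured as one member of a kinome-wide kinase profiling panel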
[15] = target: Mitogen-activated protein kinase 9 (Homo sapiens, UniProt P45984); format: functional;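 also: value from a kinome panel profiling assay, MAPK9 panel entry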
Mitogen-activated protein kinase 9, sequence (P45984 whole entry): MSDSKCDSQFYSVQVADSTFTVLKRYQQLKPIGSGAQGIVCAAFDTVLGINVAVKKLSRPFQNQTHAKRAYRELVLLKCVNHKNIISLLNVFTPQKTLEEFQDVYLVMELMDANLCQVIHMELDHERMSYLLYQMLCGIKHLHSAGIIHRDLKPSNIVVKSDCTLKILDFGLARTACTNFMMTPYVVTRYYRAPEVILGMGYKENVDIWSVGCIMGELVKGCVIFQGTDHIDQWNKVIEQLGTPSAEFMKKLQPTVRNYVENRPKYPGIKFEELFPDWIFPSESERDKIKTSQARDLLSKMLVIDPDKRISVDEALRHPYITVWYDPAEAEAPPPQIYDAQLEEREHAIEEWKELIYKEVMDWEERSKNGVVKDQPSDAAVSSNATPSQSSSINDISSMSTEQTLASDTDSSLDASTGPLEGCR

[16] = target: MAP kinase-activated protein kinase 2 (Homo sapiens, UniProt P49137); format: functional;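 also: measured as one member of a kinome-wide kinase panel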
MAP kinase-activated protein kinase 2, sequence (P49137 whole entry): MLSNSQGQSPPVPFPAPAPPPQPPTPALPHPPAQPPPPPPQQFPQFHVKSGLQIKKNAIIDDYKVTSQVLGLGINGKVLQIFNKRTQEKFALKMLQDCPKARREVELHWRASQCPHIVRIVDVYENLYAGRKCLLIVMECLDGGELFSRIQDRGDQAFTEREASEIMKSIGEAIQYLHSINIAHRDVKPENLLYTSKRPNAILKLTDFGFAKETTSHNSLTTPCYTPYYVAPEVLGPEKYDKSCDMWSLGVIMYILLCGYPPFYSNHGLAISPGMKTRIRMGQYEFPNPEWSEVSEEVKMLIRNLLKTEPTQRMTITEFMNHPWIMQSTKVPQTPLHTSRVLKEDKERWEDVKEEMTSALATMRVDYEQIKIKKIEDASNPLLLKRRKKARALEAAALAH

[17] = target: Mitogen-activated protein kinase kinase kinase kinase 2 (Homo sapiens, UniProt Q12851); format: functional;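 also: measured as one member of a kinome-wide kinase panel, with MAP4K2 as the panel entry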
[18] = target: Serine/threonine-protein kinase MRCK alpha (Homo sapiens, UniProt Q5VT25); format: functional
Serine/threonine-protein kinase MRCK alpha, sequence (Q5VT25 whole entry): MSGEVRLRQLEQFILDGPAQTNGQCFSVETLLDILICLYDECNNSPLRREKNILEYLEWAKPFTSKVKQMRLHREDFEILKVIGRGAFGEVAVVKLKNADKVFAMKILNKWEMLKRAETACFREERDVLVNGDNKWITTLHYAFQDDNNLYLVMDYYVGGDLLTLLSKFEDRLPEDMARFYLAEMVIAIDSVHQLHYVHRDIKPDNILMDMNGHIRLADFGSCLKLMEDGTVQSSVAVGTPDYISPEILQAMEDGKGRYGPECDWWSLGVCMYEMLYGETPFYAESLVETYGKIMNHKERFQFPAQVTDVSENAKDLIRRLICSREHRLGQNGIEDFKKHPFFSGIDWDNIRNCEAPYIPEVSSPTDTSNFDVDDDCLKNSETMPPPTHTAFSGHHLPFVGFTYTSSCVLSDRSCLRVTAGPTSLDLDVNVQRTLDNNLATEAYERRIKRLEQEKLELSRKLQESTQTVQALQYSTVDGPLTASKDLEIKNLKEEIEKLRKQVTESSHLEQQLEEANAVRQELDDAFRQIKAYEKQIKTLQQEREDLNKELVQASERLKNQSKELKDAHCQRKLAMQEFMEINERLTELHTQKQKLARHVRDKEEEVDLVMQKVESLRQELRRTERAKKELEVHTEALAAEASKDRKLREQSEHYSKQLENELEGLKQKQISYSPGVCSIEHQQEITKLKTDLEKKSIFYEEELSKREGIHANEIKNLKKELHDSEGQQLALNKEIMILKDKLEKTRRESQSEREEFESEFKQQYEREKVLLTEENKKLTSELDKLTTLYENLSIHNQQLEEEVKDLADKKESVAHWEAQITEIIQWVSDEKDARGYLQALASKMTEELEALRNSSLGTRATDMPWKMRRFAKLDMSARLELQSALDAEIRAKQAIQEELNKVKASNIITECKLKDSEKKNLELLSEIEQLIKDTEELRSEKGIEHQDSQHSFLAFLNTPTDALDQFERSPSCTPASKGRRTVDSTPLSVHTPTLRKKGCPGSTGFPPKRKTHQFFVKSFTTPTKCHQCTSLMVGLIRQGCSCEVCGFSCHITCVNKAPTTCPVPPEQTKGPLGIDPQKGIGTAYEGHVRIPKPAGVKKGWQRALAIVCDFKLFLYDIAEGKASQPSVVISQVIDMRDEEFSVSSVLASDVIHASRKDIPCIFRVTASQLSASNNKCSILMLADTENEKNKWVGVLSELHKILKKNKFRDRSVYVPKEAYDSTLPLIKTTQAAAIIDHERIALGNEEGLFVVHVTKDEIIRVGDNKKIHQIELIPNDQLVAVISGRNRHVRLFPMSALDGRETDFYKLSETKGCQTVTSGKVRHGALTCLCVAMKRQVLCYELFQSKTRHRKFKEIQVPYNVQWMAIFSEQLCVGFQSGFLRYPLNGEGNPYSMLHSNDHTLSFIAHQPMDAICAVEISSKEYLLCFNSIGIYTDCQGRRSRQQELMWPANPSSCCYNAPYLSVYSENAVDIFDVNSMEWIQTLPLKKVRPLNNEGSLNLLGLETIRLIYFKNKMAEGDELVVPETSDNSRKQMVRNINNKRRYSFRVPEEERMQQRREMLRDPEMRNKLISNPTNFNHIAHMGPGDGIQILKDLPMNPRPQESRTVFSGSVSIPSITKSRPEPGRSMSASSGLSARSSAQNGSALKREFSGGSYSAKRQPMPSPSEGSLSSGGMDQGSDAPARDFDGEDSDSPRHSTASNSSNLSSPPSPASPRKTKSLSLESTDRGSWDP

[19] = target: 3-phosphoinositide-dependent protein kinase 1 (Homo sapiens, UniProt O15530); format: functional;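 also: value comes from the Navigating the Kinome panel, PDPK1 member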
[20] = target: Interleukin-1 receptor-associated kinase 1 (Homo sapiens, UniProt P51617); format: functional;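 also: IRAK1 tested as one member of a kinome panel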

Structure (SMILES): CC(=O)NC1C(=O)N(CCN2CCOCC2)c2ccc(F)cc21 (stereo not drawn)
IC50 (Hexokinase HKDC1): 14900 nM (active)
IC50 (SUMO-activating enzyme): 5820 nM (active)

Structure (SMILES): O=C1C=C(N2CCCCC2)c2ccccc2C1=O
EC50 [1]: 1880 nM (active)

Structure (SMILES): O=C(O)C1Nc2c(O)cc(Cl)c([N+](=O)[O-])c2C2C=CCC12 (stereo not drawn)
IC50 [2]: 175000 nM (active)
IC50 [3]: 27900 nM (active)

Structure (SMILES): Oc1ccc(N=Nc2c(O)ccc3ccccc23)cc1
IC50 [4]: 22800 nM (inactive)

Ki [5]: > 2000 nM (inactive)
Ki [6]: 3.98 nM (active)
Ki [7]: > 2000 nM (inactive)
Ki [8]: > 10000 nM (inactive)
Ki [9]: 631 nM (active)
Ki [10]: 79.4 nM (active)
Ki [11]: 5.01 nM (active)
Ki [12]: 251 nM (active)
Ki [13]: > 2000 nM (inactive)
Ki [14]: 398 nM (active)
Ki [15]: 3980 nM (active)
Ki [16]: 631 nM (active)
Ki [17]: 63.1 nM (active)
Ki [18]: 7.94 nM (active)
pKi [18]: 8.1
Ki [19]: 2000 nM (active)
Ki [20]: 1260 nM (active)
Structure (SMILES): Cc1n[nH]c2ccc(-c3cncc(OCC(N)Cc4cccc(Cl)c4)c3)cc12 (stereo not drawn)

Reference: ChEMBL document CHEMBL1201862, “PubChem BioAssay data set” (2004)
